Results taken from patent US20110065663A1, “ANTI-CANCER COMBINATION THERAPY” (Katholieke Universiteit Leuven, K.U. Leuven R&D, priority 2008, published 2011).
“And” between values parts separate entries of the source, which are not always exact repeats. Equal entries are not always repeated. Where two headings read alike, the source gives them in different places.

How the values were obtained:
Assay type in all cases: cell-based, human
MCF-7 cells [1] = assay: Flow cytometry, cell cycle arrest in MCF-7 cells
OST.TK^− cells = assay: Cytostatic activity in M. hyorhinis-infected osteosarcoma cells
MCF-7/HYOR cells [2] = assay: Flow cytometry, cell cycle arrest in MCF-7/HYOR cells
MCF-7/HYOR cells [3] = assay: Tumor cell proliferation assay, M. hyorhinis-infected MCF-7 cells; conditions: for IC50: Homo sapiens, MCF7, M. hyorhinis-infected MCF-7
Description: Mycoplasma hyorhinis (ATCC 17981) was obtained from the American Type Culture Collection (ATCC, Manassas, Va.). The freeze-dried bacteria were reconstituted by adding 1 ml of DMEM. […] The co-culture of MCF-7 cells and M. hyorhinis was maintained under the same conditions as the uninfected MCF-7 cells. […] The cells were incubated for another 4 days, trypsinized and counted by a Coulter counter (Analis, Suarlée, Belgium).

MCF-7 cells [4] = assay: Gemcitabine metabolite distribution in MCF-7 cells (HPLC); conditions: 24 h; 1 μCi; FIG. 5
Description: MCF-7 and MCF-7/HYOR cells were seeded and treated with 1 μCi of nucleoside with and without TPi as described above. […] Next, the cells were incubated in 0.5 ml absolute ice-cold methanol and kept on ice for 20 minutes. After centrifugation for 20 minutes at 13,000 rpm, the supernatant was subjected to HPLC analysis. The nucleobases, nucleosides and nucleotides in the supernatant were separated by a Partisphere 10 SAX anion exchange column (Whatmann International Ltd., Maidstone, England) as described earlier (Balzarini J. et al., AIDS 2002; 16:2159-63), while the nucleobases and nucleosides present in the collected medium were separated using an RP-8 column. The amount of compound incorporated into nucleic acids was measured as described above.

MCF-7/HYOR cell cultures = assay: Nucleoside metabolism experiments, distribution of drug-derived radiolabel in MCF-7/HYOR cell cultures; conditions: 24 h; 1 μCi; FIG. 5
Description: Next, the cells were trypsinized, transferred to Eppendorf tubes and centrifuged for 10 minutes at 1,400 rpm. The pellet was resuspended in 1 ml absolute ice-cold methanol and kept on ice for 20 minutes. After centrifugation for 20 minutes at 13,000 rpm the pellet was washed twice with methanol, resuspended in methanol and transferred to scintillation vials containing 9 ml of Ready safe liquid scintillation reagent (‘Hisafe 3’, Perkin Elmer, Waltham, Mass.). The radioactivity was measured by a Liquid scintillation analyzer (2300 TR, Packard, Canberra, Australia). […] Next, the cells were incubated in 0.5 ml absolute ice-cold methanol and kept on ice for 20 minutes. After centrifugation for 20 minutes at 13,000 rpm, the supernatant was subjected to HPLC analysis. […] The amount of compound incorporated into nucleic acids was measured as described above.

MDA-MB-231 cells = assay: Cytostatic activity in M. hyorhinis-infected MDA-MB-231 breast carcinoma cells
MCF-7 cells [5] = assay: Tumor cell proliferation assay, uninfected MCF-7 cells; conditions: for IC50: Homo sapiens, uninfected MCF-7
Description: MCF-7 and MCF-7/HYOR cells were seeded in 48-well plates at 10,000 cells/cm^2. […] of the test compounds (5FU, 5′DFUR, CIdUrd, BrdUrd, IdUrd and TFT) with or without 10 μM TPi were added. The cells were incubated for another 4 days, trypsinized and counted by a Coulter counter (Analis, Suarlée, Belgium). In some experiments, the antibiotic plasmocin was added one or three days before addition of the test compounds.

[6] = IC50 in the absence of TPi to IC50 in the presence of TPi

Nc1ccn([C@@H]2O[C@H](CO)[C@@H](O)C2(F)F)c(=O)n1 [gemcitabine, 2′,2′-difluorodeoxycytidine]
Concentration causing cell cycle arrest in the S-phase (MCF-7 cells [1]): 0.2 µM | Reduction in the cytostatic activity upon M. hyorhinis infection (OST.TK^− cells): 70 fold | Higher concentration needed to cause a similar S-phase arrest than in MCF-7 (MCF-7/HYOR cells [2]): 25 fold | IC50 (MCF-7/HYOR cells [3]; no TPi, no plasmocin, read-out: IC50 MCF-7/HYOR As such): 80 ± 28 nM | IC50 (MCF-7/HYOR cells [3]; with 10 μM TPi, read-out: IC50 MCF-7/HYOR +TPi (10 μM)): 5.8 ± 1.2 nM | Ratio (1)/(2) MCF-7/HYOR (MCF-7/HYOR cells [3]; [6]): 14 | Reduction of cytostatic activity in infected MCF-7/HYOR compared to control MCF-7 cells (MCF-7/HYOR cells [3]; M. hyorhinis infection): 10 fold and 14 fold | Anti-proliferative activity in MCF-7/HYOR after three days pre-incubation with doxycycline (MCF-7/HYOR cells [3]; doxycycline, 3 days): restores | Anti-proliferative activity in MCF-7/HYOR after three days pre-incubation with plasmocin (MCF-7/HYOR cells [3]; plasmocin 25 μg/ml, 3 days): restores | Activation (phosphorylation) of gemcitabine in MCF-7 cells (MCF-7 cells [4]): readily activated | Active (phosphorylated) metabolites of gemcitabine in M. hyorhinis infected MCF-7 cells (MCF-7/HYOR cell cultures): no active metabolite can be detected | Reduction in the cytostatic activity upon M. hyorhinis infection (MDA-MB-231 cells): 40 fold | IC50 (MCF-7 cells [5]; MCF7, 96 h, no TPi, 4 days, read-out: IC50 MCF-7 As such): 7.3 ± 3.6 nM | IC50 (MCF-7 cells [5]; MCF7, with 10 μM TPi, read-out: IC50 MCF-7 +TPi (10 μM)): 6.3 ± 2.2 nM | Ratio (1)/(2) MCF-7 (MCF-7 cells [5]; [6]): 1.2
